Results as given in paper PMC9516332 (Frontiers in Oncology, 2022).
Read-outs that look alike come from different tables or passages of the source.

Tested on: 134 cancer cell lines
Test: Cell viability assay (ATPlite, 72 hours), IC50 on cancer cell line panel

COc1ccc(CN2C3CC2CN(c2ccc(-c4cc(OCC(C)(C)O)cn5ncc(C#N)c45)cn2)C3)cn1 [selpercatinib]
IC50 (HEC-6, read-out: IC50 in cell proliferation assay, HEC-6 cell line (EGFR p.A289V)): > 31.6 µM
IC50 (Homo sapiens, 769-P, read-out: IC50 in cell proliferation assay, cell line 769-P): 5.72 µM
IC50 (Homo sapiens, 786-0, read-out: IC50 in cell proliferation assay, cell line 786-O): 7.5 µM
IC50 (Homo sapiens, A 172, read-out: IC50 in cell proliferation assay, cell line A-172): 1.33 µM
IC50 (Homo sapiens, A204, read-out: IC50 in cell proliferation assay, cell line A-204): 2.47 µM
IC50 (Homo sapiens, A498, read-out: IC50 in cell proliferation assay, cell line A-498): 6.25 µM
IC50 (Homo sapiens, A549, read-out: IC50 in cell proliferation assay, cell line A-549): 3.75 µM
IC50 (Homo sapiens, A704, read-out: IC50 in cell proliferation assay, cell line A-704): 2.74 µM
IC50 (Homo sapiens, A-375, read-out: IC50 in cell proliferation assay, cell line A-375 (BRAF p.V600E)): 4.28 µM
IC50 (Homo sapiens, A-427, read-out: IC50 in cell proliferation assay, cell line A-427): 1.53 µM
IC50 (Homo sapiens, ACHN, read-out: IC50 in cell proliferation assay, cell line ACHN): 2.78 µM
IC50 (Homo sapiens, AN3-CA, read-out: IC50 in cell proliferation assay, cell line AN3-CA (FGFR2 p.N549K)): 0.576 µM
IC50 (Homo sapiens, ASPC1, read-out: IC50 in cell proliferation assay, cell line AsPC-1): > 31.6 µM
IC50 (Homo sapiens, AU565, read-out: IC50 in cell proliferation assay, cell line AU565 (ERBB2 amplification)): 2.85 µM
IC50 (Homo sapiens, BT-20, read-out: IC50 in cell proliferation assay, cell line BT-20): 3.36 µM
IC50 (Homo sapiens, BT-474, read-out: IC50 in cell proliferation assay, cell line BT-474 (ERBB2 amplification)): 28.7 µM
IC50 (Homo sapiens, BT-549, read-out: IC50 in cell proliferation assay, cell line BT-549): 3.82 µM
IC50 (Homo sapiens, BXPC-3, read-out: IC50 in cell proliferation assay, cell line BxPC-3): 3.95 µM
IC50 (Homo sapiens, C-33-A, read-out: IC50 in cell proliferation assay, cell line C-33 A): 2.85 µM
IC50 (Homo sapiens, CAL-27, read-out: IC50 in cell proliferation assay, cell line CAL-27): 4.41 µM
IC50 (Homo sapiens, CCF-STTG1, read-out: IC50 in cell proliferation assay, cell line CCF-STTG1): 7.96 µM
IC50 (Homo sapiens, CCRF-CEM, read-out: IC50 in cell proliferation assay, cell line CCRF-CEM): 3.45 µM
IC50 (Homo sapiens, COLO 205, read-out: IC50 in cell proliferation assay, cell line COLO 205 (BRAF p.V600E)): 4.42 µM
IC50 (Homo sapiens, COLO-829, read-out: IC50 in cell proliferation assay, cell line COLO 829 (BRAF p.V600E)): 10.7 µM
IC50 (Homo sapiens, DLD-1, read-out: IC50 in cell proliferation assay, cell line DLD-1): 8.43 µM
IC50 (Homo sapiens, DU-4475, read-out: IC50 in cell proliferation assay, cell line DU4475 (BRAF p.V600E)): 6.24 µM
IC50 (Homo sapiens, Daoy, read-out: IC50 in cell proliferation assay, cell line Daoy): 3.17 µM
IC50 (Homo sapiens, DoTc2-4510, read-out: IC50 in cell proliferation assay, cell line DoTc2 4510): 4.18 µM
IC50 (Homo sapiens, EOL1, read-out: IC50 in cell proliferation assay, cell line EoL-1 (FIP1L1-PDGFRA)): 0.29 µM
IC50 (Homo sapiens, FaDu, read-out: IC50 in cell proliferation assay, cell line FaDu): 4.82 µM
IC50 (Homo sapiens, G-361, read-out: IC50 in cell proliferation assay, cell line G-361 (BRAF p.V600E)): 5.87 µM
IC50 (Homo sapiens, HCC827, read-out: IC50 in cell proliferation assay, cell line HCC827 (EGFR exon19del)): 13.5 µM
IC50 (Homo sapiens, HCC4006, read-out: IC50 in cell proliferation assay, cell line HCC4006 (EGFR exon19del)): 6.75 µM
IC50 (Homo sapiens, HCT-15, read-out: IC50 in cell proliferation assay, cell line HCT 15): 10.7 µM
IC50 (Homo sapiens, HCT-116, read-out: IC50 in cell proliferation assay, cell line HCT 116): 14.9 µM
IC50 (Homo sapiens, HEC-1, read-out: IC50 in cell proliferation assay, HEC-1 cell line): 8.9 µM
IC50 (Homo sapiens, HEC-1B, read-out: IC50 in cell proliferation assay, HEC-1-B cell line (EGFR p.A864V)): 2.07 µM
IC50 (Homo sapiens, HL-60, read-out: IC50 in cell proliferation assay, HL-60 cell line): 5.79 µM
IC50 (Homo sapiens, HT, read-out: IC50 in cell proliferation assay, HT cell line): 4.86 µM
IC50 (Homo sapiens, HT-1080, read-out: IC50 in cell proliferation assay, HT-1080 cell line): 5.16 µM
IC50 (Homo sapiens, Hs746T, read-out: IC50 in cell proliferation assay, Hs 746.T cell line (MET exon14skip + amplification)): 28.1 µM
IC50 (Homo sapiens, Hs-578T, read-out: IC50 in cell proliferation assay, Hs 578T cell line): 3.61 µM
IC50 (Homo sapiens, HuTu80, read-out: IC50 in cell proliferation assay, HuTu 80 cell line): 1.35 µM
IC50 (Homo sapiens, J82, read-out: IC50 in cell proliferation assay, J82 cell line): 3.3 µM
IC50 (Homo sapiens, Jurkat E6.1, read-out: IC50 in cell proliferation assay, Jurkat E6.1 cell line): 4.03 µM
IC50 (Homo sapiens, K562, read-out: IC50 in cell proliferation assay, K-562 cell line): 5.5 µM
IC50 (Homo sapiens, KATO III, read-out: IC50 in cell proliferation assay, KATO III cell line (FGFR2 amplification)): 0.241 µM
IC50 (Homo sapiens, KG-1, read-out: IC50 in cell proliferation assay, KG-1 cell line (FGFR1OP2-FGFR1)): 0.227 µM
IC50 (Homo sapiens, KLE, read-out: IC50 in cell proliferation assay, KLE cell line): 5.6 µM
IC50 (Homo sapiens, KMS-11, read-out: IC50 in cell proliferation assay, KMS-11 cell line (FGFR3 p.Y373C)): 0.661 µM
IC50 (Homo sapiens, KU812, read-out: IC50 in cell proliferation assay, Ku812 cell line): 3.54 µM
IC50 (Homo sapiens, Kasumi 1, read-out: IC50 in cell proliferation assay, Kasumi-1 cell line (KIT p.N822K)): 0.277 µM
IC50 (Homo sapiens, LC-2-ad, read-out: IC50 in cell proliferation assay, LC-2/ad cell line (CCDC6-RET)): 0.018 µM
IC50 (Homo sapiens, LNCaP-Clone-FGC, read-out: IC50 in cell proliferation assay, LNCaP clone FGC cell line): 16.8 µM
IC50 (Homo sapiens, LS174T, read-out: IC50 in cell proliferation assay, LS174T cell line): 4.21 µM
IC50 (Homo sapiens, LS-411N, read-out: IC50 in cell proliferation assay, LS411N cell line (BRAF p.V600E)): 3.76 µM
IC50 (Homo sapiens, LoVo, read-out: IC50 in cell proliferation assay, LoVo cell line): 0.767 µM
IC50 (Homo sapiens, MCF7, read-out: IC50 in cell proliferation assay, MCF-7 cell line): > 31.6 µM
IC50 (Homo sapiens, MDA-MB-231, read-out: IC50 in cell proliferation assay, MDA-MB-231 cell line): 28 µM
IC50 (Homo sapiens, MDA-MB-453, read-out: IC50 in cell proliferation assay, MDA-MB-453 cell line): > 31.6 µM
IC50 (Homo sapiens, MDA-MB-468, read-out: IC50 in cell proliferation assay, MDA-MB-468 cell line): 5.5 µM
IC50 (Homo sapiens, MG-63, read-out: IC50 in cell proliferation assay, MG-63 cell line): 3.08 µM
IC50 (Homo sapiens, MIA PaCa-2, read-out: IC50 in cell proliferation assay, MIA PaCa-2 cell line): 3.4 µM
IC50 (Homo sapiens, MKN-45, read-out: IC50 in cell proliferation assay, MKN45 cell line (MET amplification)): > 31.6 µM
IC50 (Homo sapiens, MOLM-13, read-out: IC50 in cell proliferation assay, MOLM-13 cell line (FLT3 ITD)): 0.123 µM
IC50 (Homo sapiens, MOLT-4, read-out: IC50 in cell proliferation assay, MOLT-4 cell line): 1.67 µM
IC50 (Homo sapiens, MV4-11, read-out: IC50 in cell proliferation assay, MV4-11 cell line (FLT3 ITD)): 0.167 µM
